Like-named read-outs stand apart in the source and are kept apart here.
Columns and labels:
A2780 cells = experiment: A2780 cell anti-proliferation assay; type: cell-based; conditions: 6 days, Cell Titer-Glo
Experimental: A2780 (ECACC) cells were cultured in RPMI-1640 complete medium (Gibco, A1049101) containing 10% fetal bovine serum (Gibco, 10099-141C), 100 U penicillin and 100 μg/mL streptomycin (Gibco, 15140-122). The Promega kit Cell Titer-Glo (Promega: G7572) was used in this method for test.
A2780 cells were cultured in T75 cell flasks (Corning, 430641) and the cells were placed in a 37° C., 5% CO2 incubator. Cells were passaged when reaching a cell density of 70%-80%, once every five days. To perform the experiment, the test compounds were dissolved in DMSO to prepare a 10 mM stock solution, and the test compounds were added to the 384-well cell test plate (Corning, 3765) at the predetermined concentration (19.5 nM-[…]) using ECHO. A2780 cells were digested and 4000 cells (60 μL medium) were seeded per well in the test plate. The 384-well plate was then centrifuged at 500 rpm for 1 minute, and then placed in a 37° C., 5% CO2 incubator for 6 days of cultivation. Six days later, the cell culture plate was equilibrated for 10 minutes at room temperature, 25 μL of Cell Titer-Glo was added to each well, and the mixture was shaken and mixed well and let stand for 5 minutes. The luminescence values for samples in various wells were read using a microplate reader in Luminescence mode.
The percentage of inhibition of A2780 cell proliferation by the test compound at each concentration was calculated by comparing with the values of the control group (0.2% DMSO). The IC50 values of the compounds were obtained by concentration-inhibition rate nonlinear regression analysis of the test compounds using GraphPad Prism 9.

KIF18A = KIF18A (Homo sapiens (Human), UniProt Q8NI77); experiment: KIF18A ATPase activity under tubulin stimulation (ADP-Glo assay); type: biochemical; conditions: KIF18A 30 nM, ATP 150 μM, pig microtubules
KIF18A, sequence (Q8NI77 whole entry): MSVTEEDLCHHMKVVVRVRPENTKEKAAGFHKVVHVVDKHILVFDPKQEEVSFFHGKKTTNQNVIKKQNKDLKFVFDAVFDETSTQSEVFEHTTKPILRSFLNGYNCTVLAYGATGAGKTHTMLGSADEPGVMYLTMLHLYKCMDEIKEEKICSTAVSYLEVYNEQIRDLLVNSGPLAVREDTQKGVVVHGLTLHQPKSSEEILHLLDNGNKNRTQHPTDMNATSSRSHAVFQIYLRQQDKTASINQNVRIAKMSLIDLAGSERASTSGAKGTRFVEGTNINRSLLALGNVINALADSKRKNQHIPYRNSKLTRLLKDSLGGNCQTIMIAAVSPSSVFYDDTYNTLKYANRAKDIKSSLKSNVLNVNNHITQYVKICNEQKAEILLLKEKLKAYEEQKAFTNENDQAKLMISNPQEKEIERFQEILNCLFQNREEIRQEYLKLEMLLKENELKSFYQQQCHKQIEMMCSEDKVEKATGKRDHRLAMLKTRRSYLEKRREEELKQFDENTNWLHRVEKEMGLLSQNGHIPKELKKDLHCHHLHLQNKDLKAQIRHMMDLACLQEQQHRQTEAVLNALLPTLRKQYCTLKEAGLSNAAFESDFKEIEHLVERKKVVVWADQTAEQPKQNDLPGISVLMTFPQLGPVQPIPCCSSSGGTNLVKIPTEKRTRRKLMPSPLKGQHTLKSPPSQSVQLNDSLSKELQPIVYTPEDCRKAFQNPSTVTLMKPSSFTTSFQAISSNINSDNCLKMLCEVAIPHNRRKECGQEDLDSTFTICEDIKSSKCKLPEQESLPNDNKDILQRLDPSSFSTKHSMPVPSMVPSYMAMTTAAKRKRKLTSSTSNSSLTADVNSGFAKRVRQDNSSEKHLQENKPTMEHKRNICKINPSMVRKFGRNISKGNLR
KIF18A, sequence (P02550 whole entry partner): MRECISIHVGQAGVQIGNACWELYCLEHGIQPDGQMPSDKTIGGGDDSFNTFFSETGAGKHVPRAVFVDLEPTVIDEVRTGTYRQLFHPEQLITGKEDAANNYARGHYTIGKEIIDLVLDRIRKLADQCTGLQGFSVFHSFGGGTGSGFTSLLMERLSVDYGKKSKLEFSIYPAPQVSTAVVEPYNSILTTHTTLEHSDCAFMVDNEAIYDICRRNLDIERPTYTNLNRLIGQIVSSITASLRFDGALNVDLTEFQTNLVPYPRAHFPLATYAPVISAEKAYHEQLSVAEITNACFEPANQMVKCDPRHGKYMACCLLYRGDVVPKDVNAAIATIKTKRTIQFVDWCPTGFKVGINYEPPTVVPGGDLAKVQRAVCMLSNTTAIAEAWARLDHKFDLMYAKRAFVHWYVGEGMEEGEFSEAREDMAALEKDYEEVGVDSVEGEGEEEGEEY
KIF18A, sequence (P02554 whole entry partner): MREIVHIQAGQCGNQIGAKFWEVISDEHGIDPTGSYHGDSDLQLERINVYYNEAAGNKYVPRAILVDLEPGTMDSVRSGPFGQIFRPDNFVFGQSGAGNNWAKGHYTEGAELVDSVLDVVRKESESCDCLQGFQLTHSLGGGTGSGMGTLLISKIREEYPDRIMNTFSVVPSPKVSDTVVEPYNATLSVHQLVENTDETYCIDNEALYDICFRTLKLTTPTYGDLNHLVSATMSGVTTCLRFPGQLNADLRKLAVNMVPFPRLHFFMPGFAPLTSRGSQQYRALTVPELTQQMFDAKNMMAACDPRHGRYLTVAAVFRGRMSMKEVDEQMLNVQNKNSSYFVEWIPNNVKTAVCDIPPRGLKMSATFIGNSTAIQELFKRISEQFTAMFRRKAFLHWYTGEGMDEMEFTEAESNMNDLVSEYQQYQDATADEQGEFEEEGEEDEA

PK study in ICR mice = type: in vivo, mouse; conditions: plasma, route and dose not given
Method in brief: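 Fasted ICR mice (3/group) dosed intravenously or by oral gavage; plasma sampled up to 24 h. Plasma levels measured by LC-MS/MS after protein precipitation. T½, AUC0-t, CL, Vss and F derived by noncompartmental analysis.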

[1] = both sexes, mouse, read-out: AUC
[2] = both sexes, mouse, read-out: Cmax

Row | Structure (SMILES) | IC50 (A2780 cells; Homo sapiens, A2780, 144 h) [nM] | IC50 (KIF18A) [nM] | AUC (PK study in ICR mice; [1]) [ng·h/mL] | Cmax (PK study in ICR mice; [2]) [ng/mL] | IC50 (A2780 cells) [nM] | AUC (PK study in ICR mice) [ng·h/mL] | Cmax (PK study in ICR mice) [ng/mL]
1 | N#Cc1ccc(NC(=O)c2ccc(NS(=O)(=O)CCO)cc2N2CCC3(CC2)CC3)c2cc3n(c12)CCOC3 [Example 310, N-(6-cyano-3,4-dihydro-1H-[1,4]oxazino[4,3-a]indol-9-yl)-4-((2-hydroxyethyl)sulfonamido)-2-(6-azaspiro[2.5]oct-6-yl)benzamide] | > 10000 | ≤ 50 | 12600 | 3030 | – | – | –
2 | CC1(C)OCCn2c1cc1c(NC(=O)c3ccc(NS(=O)(=O)CCO)cc3N3CCC(=C(F)F)CC3)cccc12 [Compound 395, 2-(4-(difluoromethylene)piperidin-1-yl)-N-(1,1-dimethyl-3,4-dihydro-1H-[1,4]oxazino[4,3-a]indol-9-yl)-4-((2-hydroxyethyl)sulfonamido)benzamide] | > 10000 | ≤ 50 | – | – | – | – | –
3 | N#Cc1ccc(NC(=O)c2ccc(NS(=O)(=O)CCO)cc2N2CCC(=C(F)F)CC2)c2cc3n(c12)CCC(F)(F)C3 [Example 378] | – | 50 to 500 | – | – | 7700 | 48150 | 5253
4 | O=C(Nc1cccc2c1cc1n2CC2CCC1O2)c1ccc(NS(=O)(=O)CCO)cc1N1CCC(=C(F)F)CC1 (stereo not drawn) [Compound 398, 2-(4-(difluoromethylene)piperidin-1-yl)-4-((2-hydroxyethyl)sulfonamido)-N-(7,8,9,10-tetrahydro-6H-7,10-epoxyazeto[1,2-a]indol-1-yl)benzamide] | – | 50 to 500 | – | – | > 10000 | 6992 | 1410
5 | O=C(Nc1cccc2c1cc1n2CCC(F)(F)C1)c1ccc(NS(=O)(=O)CCO)cc1N1CCC(=C(F)F)CC1 [Example 374, N-(8,8-difluoro-6,7,8,9-tetrahydropyridino[1,2-a]indol-1-yl)-2-(4-(difluoromethylene)piperidin-1-yl)-4-((2-hydroxyethyl)sulfonamido)benzamide] | 8500 | ≤ 50 | 26500 | 3700 | – | – | –
6 | COc1ccc(NC(=O)c2ccc(NS(=O)(=O)CCO)cc2N2CCC(=C(F)F)CC2)c2cc3n(c12)CCOC3 [Compound 405, 2-(4-(difluoromethylene)piperidin-1-yl)-4-((2-hydroxyethyl)sulfonamido)-N-(6-methoxy-3,4-dihydro-1H-[1,4]oxazinyl[4,3-a]indol-9-yl)benzamide] | – | ≤ 50 | – | – | > 10000 | 27572 | 4205
7 | CC1(C)Cn2c(cc3c(NC(=O)c4ccc(NS(=O)(=O)CCO)cc4N4CCC(=C(F)F)CC4)ccc(C#N)c32)CO1 [Compound 393, N-(6-cyano-3,3-dimethyl-3,4-dihydro-1H-[1,4]oxazino[4,3-a]indol-9-yl)-2-(4-(difluoromethylene)piperidin-1-yl)-4-((2-hydroxyethyl)sulfonamido)benzamide] | > 10000 | 50 to 500 | 22300 | 3840 | – | – | –
8 | O=C(Nc1cccc2c1cc1n2CCOC1)c1ccc(NS(=O)(=O)CCO)cc1N1CCC(=C(F)F)CC1 [Example 319, 2-(4-difluoromethylene)piperidin-1-yl-N-(3,4-dihydro-1H-[1,4]oxazino[4,3-a]indol-9-yl)-4-((2-hydroxyethyl)sulfonamide) benzamide] | – | ≤ 50 | – | – | > 10000 | 16534 | 3717
9 | Nc1cc(NS(=O)(=O)CCO)cc(N2CCC3(CC2)CC3)c1C(=O)Nc1cccc(N2CCC(F)(F)CC2)c1 [Example 1, 2-amino-N-(3-(4,4-difluoropiperidin-1-yl)phenyl)-4-((2-hydroxyethyl)sulfonamide)-6-(6-azaspiro[2.5]octan-6-yl)benzamide] | – | ≤ 50 | – | – | – | – | –
10 | CC1(C)Cn2c(nc3c(NC(=O)c4ccc(NS(=O)(=O)CCO)cc4N4CCC(=C(F)F)CC4)cccc32)CO1 [Compound 394, 2-(4-(difluoromethylene)piperidin-1-yl)-N-(3,3-dimethyl-3,4-dihydro-1H-benzo[4,5]imidazo[2,1-c][1,4]oxazin-9-yl)-4-((2-hydroxyethyl)sulfonamido)benzamide] | > 10000 | ≤ 50 | 47800 | 4220 | – | – | –
11 | O=C(Nc1cccc2c1cc1n2CCOC1)c1ccc(NS(=O)(=O)CCO)cc1N1CCC2(CC1)CC2 [Example 235, N-(3,4-dihydro-1H-[1, 4]oxazino[4,3-a]indol-9-yl)-4-(2-hydroxyethylsulfonamido)-2-(6-azaspiro[2.5]octan-6-yl)benzamide] | > 10000 | ≤ 50 | 5980 | 2990 | – | – | –
12 | COc1ccc(NC(=O)c2ccc(NS(=O)(=O)CCO)cc2N2CCC3(CC2)CC3)c2cc3n(c12)CC(C)(C)OC3 [Example 455, 4-((2-hydroxyethyl)sulfonamido)-N-(6-methoxy-3,3-dimethyl-3,4-dihydro-1H-[1,4]oxazinyl[4,3-a]indol-9-yl)-2-(6-azaspiro[2.5]oct-6-yl)benzamide] | > 10000 | 50 to 500 | 71000 | 5590 | – | – | –
13 | O=C(Nc1ccc(F)c2c1cc1n2CCOC1)c1ccc(NS(=O)(=O)CCO)cc1N1CCC(=C(F)F)CC1 [Example 321, 2-(4-(difluoromethylene)piperidin-1-yl)-N-(6-fluoro-3,4-dihydro-1H-[1,4]oxazino[4,3-a]indol-9-yl)-4-((2-hydroxyethyl)sulfonamido)benzamide] | > 10000 | ≤ 50 | 16000 | 4140 | – | – | –
14 | CC1Cn2c(cc3c(NC(=O)c4ccc(NS(=O)(=O)CCO)cc4N4CCC5(CC4)CC5)cccc32)C(C)O1 (single isomer, unassigned) [Compound 312-P2A, N-(1,3-dimethyl-3,4-dihydro-1H-[1,4]oxazino[4,3-a]indol-9-yl)-4-((2-hydroxyethyl)sulfonamido)-2-(6-azaspiro[2.5]oct-6-yl)benzamide] | – | ≤ 50 | – | – | 6500 | – | –
15 | COC1c2cc3c(NC(=O)c4ccc(NS(=O)(=O)CCO)cc4N4CCC5(CC4)CC5)cccc3n2CCC1(F)F (single isomer, unassigned) [Example 340-P2] | – | ≤ 50 | – | – | > 10000 | – | –
16 | COc1ccc(NC(=O)c2ccc(NS(=O)(=O)CCO)cc2N2CCC(=C(F)F)CC2)c2cc3n(c12)CC(C)(C)OC3 [Example 465, 2-(4-(difluoromethylene)piperidin-1-yl)-4-((2-hydroxyethyl)sulfonamido)-N-(6-methoxy-3,3-dimethyl-3,4-dihydro-1H-[1,4]oxazinyl[4,3-a]indol-9-yl)benzamide] | – | 50 to 500 | – | – | > 10000 | 72111 | 5780
17 | CC1(O)CCCn2c1cc1c(NC(=O)c3ccc(NS(=O)(=O)CCO)cc3N3CCC4(CC3)CC4)cccc12 (stereo not drawn) [Example 372] | – | ≤ 50 | – | – | > 10000 | – | –
18 | O=C(Nc1ccc(F)c2c1nc1n2CCOC1)c1ccc(NS(=O)(=O)CCO)cc1N1CCC2(CC1)CC2 [Example 308, N-(6-fluoro-3,4-dihydro-1H-benzo[4,5]imidazo[2,1-c][1,4]oxazin-9-yl)-4-((2-hydroxyethyl)sulfonamido)-2-(6-azaspiro[2.5]octan-6-yl)benzamide] | > 10000 | ≤ 50 | 5650 | 1100 | – | – | –
19 | N#Cc1ccc(NC(=O)c2ccc(NS(=O)(=O)CCO)cc2N2CCC3(CC2)CC3)c2cc3n(c12)CCC(F)(F)C3 [Example 379] | – | ≤ 50 | – | – | 5300 | 36456 | 4043
20 | N#Cc1ccc(NC(=O)c2ccc(NS(=O)(=O)CCO)cc2N2CCC(=C(F)F)CC2)c2cc3n(c12)CCOC3 [Example 364, N-(6-cyano-3,4-dihydro-1H-[1,4]oxazino[4,3-a]indol-9-yl)-2-(4-(difluoromethylene)piperidin-1-yl)-4-((2-hydroxyethyl)sulfonamido)benzamide] | 9400 | ≤ 50 | – | – | – | – | –
21 | CNc1cc(NS(=O)(=O)CCO)cc(N2CCC3(CC2)CC3)c1C(=O)Nc1cc(C)nc(N2CCC(F)(F)CC2)n1 [Example 4, N-(2-(4,4-difluoropiperidin-1-yl)-6-methylpyrimidin-4-yl)-4-(2-hydroxyethylsulfonamide)-2-methylamino-6-(6-azaspiro[2.5]octan-6-yl)benzamide] | – | 50 to 500 | – | – | 8300 | – | –
22 | CC1(C)Cn2c(cc3c(NC(=O)c4ccc(NS(=O)(=O)CCO)cc4N4CCC5(CC4)CC5)ccc(OC(F)F)c32)CO1 [Example 523] | – | 50 to 500 | – | – | – | 99384 | 7088

— patent US20260070887A1 (Shenzhen Zhongge Biological Technology Co., Ltd., priority 2022, published 2026)
